In US20240190880A1 (THE REGENTS OF THE UNIVERSITY OF MICHIGAN, priority 2021, published 2024):

These compounds were tested against T1, ER (Homo sapiens, UniProt P03372) (assay: ER degradation activity, in-cell western blot analysis in T47D cells). Details: 16 hours, Table A does not say which cell line (T47D or MCF7), read-out: Potency (DC50).
T1 construct: host or cells: T47D and MCF7 human breast cancer cells
T1 sequence (P03372 1-595): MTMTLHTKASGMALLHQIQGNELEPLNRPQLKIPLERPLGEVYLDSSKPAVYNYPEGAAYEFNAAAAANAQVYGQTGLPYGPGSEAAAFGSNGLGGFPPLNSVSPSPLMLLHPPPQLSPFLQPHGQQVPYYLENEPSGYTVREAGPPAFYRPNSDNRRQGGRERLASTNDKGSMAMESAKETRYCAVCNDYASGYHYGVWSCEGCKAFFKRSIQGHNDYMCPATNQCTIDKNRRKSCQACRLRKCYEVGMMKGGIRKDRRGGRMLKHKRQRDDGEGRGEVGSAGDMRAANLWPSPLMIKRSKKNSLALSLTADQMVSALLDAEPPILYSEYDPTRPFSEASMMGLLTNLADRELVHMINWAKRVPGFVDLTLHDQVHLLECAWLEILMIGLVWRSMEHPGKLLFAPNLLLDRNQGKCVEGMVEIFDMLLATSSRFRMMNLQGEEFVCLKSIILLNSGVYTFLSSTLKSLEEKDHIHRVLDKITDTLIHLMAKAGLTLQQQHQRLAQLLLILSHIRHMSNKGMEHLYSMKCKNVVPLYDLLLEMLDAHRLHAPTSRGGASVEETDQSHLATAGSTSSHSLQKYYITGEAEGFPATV
Assay type: cell-based
Summary of the method: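 Read-out is near-infrared fluorescence from an in-cell western, expressed as ER percentage relative to untreated and DMSO controls taken as 100%. T47D breast cancer cells received compound for 16 h in 0.5% DMSO.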

Row | Structure (SMILES) | DC50
1 | O=C1CCC(N2C(=O)c3cc4c(cc3C2=O)CN(CC(=O)N2CCC3(CC2)CCN(c2ccc([C@@H]5c6ccc(O)cc6CC[C@@H]5c5ccccc5)cc2)C3)C4)C(=O)N1 (mixture of isomers) [E 139, Rac-2-(2,6-dioxopiperidin-3-yl)-6-(2-(2-(4-((1R,2S)-6-hydroxy-2-phenyl-1,2,3,4-tetrahydronaphthalen-1-yl)phenyl)-2,8-diazaspiro[4.5]decan-8-yl)-2-oxoethyl)-6,7-dihydropyrrolo[3,4-f]isoindole-1,3(2H,5H)-dione] | 10 to 100 nM
2 | O=C1CCC(N2C(=O)c3cc4c(cc3C2=O)CN(C(=O)CN2CCC3(CCN(c5ccc([C@@H]6c7ccc(O)cc7CC[C@@H]6c6ccccc6)cc5)CC3)C2)C4)C(=O)N1 (mixture of isomers) [E 140, Rac-2-(2,6-dioxopiperidin-3-yl)-6-(2-(8-(4-((1R,2S)-6-hydroxy-2-phenyl-1,2,3,4-tetrahydronaphthalen-1-yl)phenyl)-2,8-diazaspiro[4.5]decan-2-yl)acetyl)-6,7-dihydropyrrolo[3,4-f]isoindole-1,3(2H,5H)-dione] | > 100 nM
3 | O=C1CCC(N2C(=O)c3cc4c(cc3C2=O)CN(C(=O)CN2CCC3(CC2)CCN(c2ccc([C@@H]5c6ccc(O)cc6CC[C@@H]5c5ccccc5)cc2)C3)C4)C(=O)N1 (mixture of isomers) [E 141, Rac-2-(2,6-dioxopiperidin-3-yl)-6-(2-(2-(4-((1R,2S)-6-hydroxy-2-phenyl-1,2,3,4-tetrahydronaphthalen-1-yl)phenyl)-2,8-diazaspiro[4.5]decan-8-yl)acetyl)-6,7-dihydropyrrolo[3,4-f]isoindole-1,3(2H,5H)-dione] | > 100 nM
4 | O=C1CCC(N2C(=O)c3cc4c(cc3C2=O)CN(C(=O)CN2CCC3(CC2)CN(c2ccc([C@@H]5c6ccc(O)cc6CC[C@@H]5c5ccccc5)cc2)C3)C4)C(=O)N1 (mixture of isomers) [E 150, Rac-2-(2,6-dioxopiperidin-3-yl)-6-(2-(2-(4-((1R,2S)-6-hydroxy-2-phenyl-1,2,3,4-tetrahydronaphthalen-1-yl)phenyl)-2,7-diazaspiro[3.5]nonan-7-yl)acetyl)-6,7-dihydropyrrolo[3,4-f]isoindole-1,3(2H,5H)-dione] | > 100 nM
5 | O=C1CCC(N2C(=O)c3cc4c(cc3C2=O)CN(C(=O)CN2CCC3(CC2)CCN(c2ccc([C@@H]5c6ccc(O)cc6CC[C@@H]5c5ccc(F)cc5)cc2)C3)C4)C(=O)N1 (mixture of isomers) [E 152, Rac-2-(2,6-dioxopiperidin-3-yl)-6-(2-(2-(4-((1R,2S)-2-(4-fluorophenyl)-6-hydroxy-1,2,3,4-tetrahydronaphthalen-1-yl)phenyl)-2,8-diazaspiro[4.5]decan-8-yl)acetyl)-6,7-dihydropyrrolo[3,4-f]isoindole-1,3(2H,5H)-dione] | > 100 nM
6 | O=C1CCC(N2C(=O)c3cc4c(cc3C2=O)CN(C(=O)CN2CCC3(CC2)CCN(c2ccc([C@@H]5c6ccc(O)cc6CC[C@@H]5c5ccccc5)c(F)c2)C3)C4)C(=O)N1 (mixture of isomers) [E 153, Rac-2-(2,6-dioxopiperidin-3-yl)-6-(2-(2-(3-fluoro-4-((1S,2S)-6-hydroxy-2-phenyl-1,2,3,4-tetrahydronaphthalen-1-yl)phenyl)-2,8-diazaspiro[4.5]decan-8-yl)acetyl)-6,7-dihydropyrrolo[3,4-f]isoindole-1,3(2H,5H)-dione] | > 100 nM
7 | O=C1CCC(N2C(=O)c3cc4c(cc3C2=O)CN(C(=O)CN2CCC3(CC2)CCN(c2ccc([C@@H]5c6ccc(O)cc6CC[C@@H]5c5ccccc5)cc2F)C3)C4)C(=O)N1 (mixture of isomers) [E 154, Rac-2-(2,6-dioxopiperidin-3-yl)-6-(2-(2-(2-fluoro-4-((1R,2S)-6-hydroxy-2-phenyl-1,2,3,4-tetrahydronaphthalen-1-yl)phenyl)-2,8-diazaspiro[4.5]decan-8-yl)acetyl)-6,7-dihydropyrrolo[3,4-f]isoindole-1,3(2H,5H)-dione] | > 100 nM
8 | O=C1CCC(N2C(=O)c3cc4c(cc3C2=O)CN(C(=O)CN2CCC3(CC2)CCN(c2c(F)cc([C@@H]5c6ccc(O)cc6CC[C@@H]5c5ccccc5)cc2F)C3)C4)C(=O)N1 (mixture of isomers) [E 155, Rac-6-(2-(2-(2,6-difluoro-4-((1R,2S)-6-hydroxy-2-phenyl-1,2,3,4-tetrahydronaphthalen-1-yl)phenyl)-2,8-diazaspiro[4.5]decan-8-yl)acetyl)-2-(2,6-dioxopiperidin-3-yl)-6,7-dihydropyrrolo[3,4-f]isoindole-1,3(2H,5H)-dione] | > 100 nM
9 | O=C1CCC(N2C(=O)c3cc4c(cc3C2=O)CN(CC2CCN(C(=O)C3CN(c5ccc([C@@H]6c7ccc(O)cc7CC[C@@H]6c6ccccc6)cc5)C3)CC2)C4)C(=O)N1 (mixture of isomers) [E 156, Rac-2-(2,6-dioxopiperidin-3-yl)-6-((1-(1-(4-((1R,2S)-6-hydroxy-2-phenyl-1,2,3,4-tetrahydronaphthalen-1-yl)phenyl)azetidine-3-carbonyl)piperidin-4-yl)methyl)-6,7-dihydropyrrolo[3,4-f]isoindole-1,3(2H,5H)-dione] | 10 to 100 nM
10 | O=C1CCC(N2C(=O)c3cc4c(cc3C2=O)CN(CC2CN(C(=O)C3CN(c5ccc([C@@H]6c7ccc(O)cc7CC[C@@H]6c6ccccc6)cc5)C3)C2)C4)C(=O)N1 (mixture of isomers) [E 158, Rac-2-(2,6-dioxopiperidin-3-yl)-6-((1-(1-(4-((1R,2S)-6-hydroxy-2-phenyl-1,2,3,4-tetrahydronaphthalen-1-yl)phenyl)azetidine-3-carbonyl)azetidin-3-yl)methyl)-6,7-dihydropyrrolo[3,4-f]isoindole-1,3(2H,5H)-dione] | > 100 nM
11 | O=C1CCC(N2C(=O)c3cc4c(cc3C2=O)CN(C(=O)CN2CCC3(CC2)CCN(c2ccc([C@@H]5c6ccc(O)cc6CC[C@@H]5c5ccccc5)cc2)CC3)CC4)C(=O)N1 (mixture of isomers) [E 161, rac-2-(2,6-dioxopiperidin-3-yl)-6-(2-(9-(4-((1R,2S)-6-hydroxy-2-phenyl-1,2,3,4-tetrahydronaphthalen-1-yl)phenyl)-3,9-diazaspiro[5.5]undecan-3-yl)acetyl)-5,6,7,8-tetrahydro-1H-pyrrolo[3,4-g]isoquinoline-1,3(2H)-dione] | > 100 nM
12 | O=C1CCC(N2C(=O)c3cc4c(cc3C2=O)CN(CC(=O)N2CCC3(CC2)CCN(c2ccc([C@@H]5c6ccc(O)cc6CC[C@@H]5c5ccccc5)cc2)CC3)CC4)C(=O)N1 (mixture of isomers) [E 162, rac-2-(2,6-dioxopiperidin-3-yl)-6-(2-(9-(4-((1R,2S)-6-hydroxy-2-phenyl-1,2,3,4-tetrahydronaphthalen-1-yl)phenyl)-3,9-diazaspiro[5.5]undecan-3-yl)-2-oxoethyl)-5,6,7,8-tetrahydro-1H-pyrrolo[3,4-g]isoquinoline-1,3(2H)-dione] | 10 to 100 nM
13 | O=C1CCC(N2C(=O)c3cc4c(cc3C2=O)CN(CC(=O)N2CC3(CCN(c5ccc([C@@H]6c7ccc(O)cc7CC[C@@H]6c6ccccc6)cc5)CC3)C2)CC4)C(=O)N1 (mixture of isomers) [E 163, rac-2-(2,6-dioxopiperidin-3-yl)-6-(2-(7-(4-((1R,2S)-6-hydroxy-2-phenyl-1,2,3,4-tetrahydronaphthalen-1-yl)phenyl)-2,7-diazaspiro[3.5]nonan-2-yl)-2-oxoethyl)-5,6,7,8-tetrahydro-1H-pyrrolo[3,4-g]isoquinoline-1,3(2H)-dione] | 10 to 100 nM
14 | O=C1CCC(N2C(=O)c3cc4c(cc3C2=O)CN(CC(=O)N2CC3(CCN(c5ccc([C@@H]6c7ccc(O)cc7CC[C@@H]6c6ccc(F)cc6)cc5)CC3)C2)CC4)C(=O)N1 (mixture of isomers) [E 164, rac-2-(2,6-dioxopiperidin-3-yl)-6-(2-(7-(4-((1R,2S)-2-(4-fluorophenyl)-6-hydroxy-1,2,3,4-tetrahydronaphthalen-1-yl)phenyl)-2,7-diazaspiro[3.5]nonan-2-yl)-2-oxoethyl)-5,6,7,8-tetrahydro-1H-pyrrolo[3,4-g]isoquinoline-1,3(2H)-dione] | 10 to 100 nM
15 | O=C1CCC(N2C(=O)c3cc4c(cc3C2=O)CN(CC(=O)N2CCC3(CC2)CCN(c2ccc([C@@H]5c6ccc(O)cc6CC[C@@H]5c5ccc(F)cc5)cc2)CC3)CC4)C(=O)N1 (mixture of isomers) [E 165, rac-2-(2,6-dioxopiperidin-3-yl)-6-(2-(9-(4-((1R,2S)-2-(4-fluorophenyl)-6-hydroxy-1,2,3,4-tetrahydronaphthalen-1-yl)phenyl)-3,9-diazaspiro[5.5]undecan-3-yl)-2-oxoethyl)-5,6,7,8-tetrahydro-1H-pyrrolo[3,4-g]isoquinoline-1,3(2H)-dione] | 10 to 100 nM
16 | O=C1CCC(N2C(=O)c3cc4c(cc3C2=O)CN(C(=O)CN2CC3(CCN(c5ccc([C@@H]6c7ccc(O)cc7CC[C@@H]6c6ccccc6)cc5)CC3)C2)CCC4)C(=O)N1 (mixture of isomers) [E 168, rac-2-(2,6-dioxopiperidin-3-yl)-6-(2-(7-(4-((1R,2S)-6-hydroxy-2-phenyl-1,2,3,4-tetrahydronaphthalen-1-yl)phenyl)-2,7-diazaspiro[3.5]nonan-2-yl)acetyl)-6,7,8,9-tetrahydroazepino[3,4-f]isoindole-1,3(2H,5H)-dione] | > 100 nM
